Measurements as given in article PMC8387736 (Drug Design, Development and Therapy, 2021).
Read-outs that look alike come from different tables or passages of the source.

How the values were obtained:
[1] = rats
CYP2B6 [2] = biological target: T1, CYP2B6 (Homo sapiens, UniProt P20813); assay: biochemical
T1 sequence (P20813 1-491): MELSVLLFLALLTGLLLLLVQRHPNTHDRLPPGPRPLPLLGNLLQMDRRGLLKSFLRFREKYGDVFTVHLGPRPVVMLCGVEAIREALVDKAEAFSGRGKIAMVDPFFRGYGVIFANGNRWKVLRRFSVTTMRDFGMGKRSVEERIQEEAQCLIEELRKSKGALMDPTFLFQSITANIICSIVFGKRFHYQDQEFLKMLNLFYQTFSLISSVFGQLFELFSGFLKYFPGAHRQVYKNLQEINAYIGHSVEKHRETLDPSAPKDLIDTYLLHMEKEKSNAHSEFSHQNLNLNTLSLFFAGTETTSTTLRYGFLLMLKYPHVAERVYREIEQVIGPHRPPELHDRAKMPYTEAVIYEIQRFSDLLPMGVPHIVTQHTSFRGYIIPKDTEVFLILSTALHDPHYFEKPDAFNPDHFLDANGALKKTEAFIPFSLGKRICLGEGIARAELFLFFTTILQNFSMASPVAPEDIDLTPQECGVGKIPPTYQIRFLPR

CYP2D6 [3] = biological target: T2, CYP2D6 (Homo sapiens, UniProt P10635); conditions: HLMs
T2 sequence (P10635 whole entry): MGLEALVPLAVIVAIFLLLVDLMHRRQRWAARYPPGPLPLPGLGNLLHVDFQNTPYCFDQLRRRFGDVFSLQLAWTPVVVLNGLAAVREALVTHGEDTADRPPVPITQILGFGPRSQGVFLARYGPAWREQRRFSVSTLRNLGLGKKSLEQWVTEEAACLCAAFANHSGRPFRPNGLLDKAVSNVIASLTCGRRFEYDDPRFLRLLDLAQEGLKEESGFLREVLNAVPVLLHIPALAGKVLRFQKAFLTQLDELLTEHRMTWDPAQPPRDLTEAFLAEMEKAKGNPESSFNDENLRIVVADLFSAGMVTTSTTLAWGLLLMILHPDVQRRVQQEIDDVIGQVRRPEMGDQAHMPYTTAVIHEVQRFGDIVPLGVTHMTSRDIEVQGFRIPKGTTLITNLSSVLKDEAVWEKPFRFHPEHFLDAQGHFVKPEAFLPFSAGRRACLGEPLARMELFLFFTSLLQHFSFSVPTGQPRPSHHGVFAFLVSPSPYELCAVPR

CYP3As [4] = assay: Inhibition of midazolam metabolism by avitinib in human liver microsomes; assay type: in vitro ADME
cyp2b1 = biological target: T3, cyp2b1 (Rattus norvegicus, UniProt P00176); assay: Inhibition of bupropion metabolism by avitinib in rat liver microsomes
T3 sequence (P00176 1-491): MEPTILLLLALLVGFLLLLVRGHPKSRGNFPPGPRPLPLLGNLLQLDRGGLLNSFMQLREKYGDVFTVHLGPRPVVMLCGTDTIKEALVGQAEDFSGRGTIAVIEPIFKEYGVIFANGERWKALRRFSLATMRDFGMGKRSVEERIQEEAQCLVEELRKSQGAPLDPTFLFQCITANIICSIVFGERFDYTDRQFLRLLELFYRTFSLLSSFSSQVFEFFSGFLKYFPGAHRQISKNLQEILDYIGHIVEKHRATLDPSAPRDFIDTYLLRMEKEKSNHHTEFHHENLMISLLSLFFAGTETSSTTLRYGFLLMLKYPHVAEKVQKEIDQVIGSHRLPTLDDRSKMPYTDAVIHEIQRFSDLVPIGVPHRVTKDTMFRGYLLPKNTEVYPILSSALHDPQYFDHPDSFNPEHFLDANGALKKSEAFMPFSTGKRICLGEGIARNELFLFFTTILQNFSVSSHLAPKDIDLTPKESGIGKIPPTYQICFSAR

CYP2B6 [5] = biological target: T1, CYP2B6; conditions: HLMs
cyp2e1 [6] = biological target: cyp2e1 (Rattus norvegicus, UniProt P05182); assay: Inhibition of chlorzoxazone metabolism by avitinib in rat liver microsomes
cyp2e1, sequence (P05182 whole entry): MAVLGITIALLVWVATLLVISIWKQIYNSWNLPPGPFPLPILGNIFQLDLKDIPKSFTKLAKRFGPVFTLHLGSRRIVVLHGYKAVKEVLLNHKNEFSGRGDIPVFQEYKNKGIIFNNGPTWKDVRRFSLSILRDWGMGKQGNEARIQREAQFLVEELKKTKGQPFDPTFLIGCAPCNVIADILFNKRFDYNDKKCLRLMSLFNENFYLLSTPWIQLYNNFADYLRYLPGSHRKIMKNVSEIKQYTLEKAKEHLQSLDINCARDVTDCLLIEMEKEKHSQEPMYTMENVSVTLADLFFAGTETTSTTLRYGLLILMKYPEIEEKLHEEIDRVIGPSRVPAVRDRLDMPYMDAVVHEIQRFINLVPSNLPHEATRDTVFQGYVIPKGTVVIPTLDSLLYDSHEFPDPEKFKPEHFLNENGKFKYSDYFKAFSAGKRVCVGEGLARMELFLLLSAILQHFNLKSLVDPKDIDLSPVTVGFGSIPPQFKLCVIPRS

CYP1A2 [7] = biological target: T4, CYP1A2 (Homo sapiens, UniProt P05177); conditions: HLMs
T4 sequence (P05177 1-516): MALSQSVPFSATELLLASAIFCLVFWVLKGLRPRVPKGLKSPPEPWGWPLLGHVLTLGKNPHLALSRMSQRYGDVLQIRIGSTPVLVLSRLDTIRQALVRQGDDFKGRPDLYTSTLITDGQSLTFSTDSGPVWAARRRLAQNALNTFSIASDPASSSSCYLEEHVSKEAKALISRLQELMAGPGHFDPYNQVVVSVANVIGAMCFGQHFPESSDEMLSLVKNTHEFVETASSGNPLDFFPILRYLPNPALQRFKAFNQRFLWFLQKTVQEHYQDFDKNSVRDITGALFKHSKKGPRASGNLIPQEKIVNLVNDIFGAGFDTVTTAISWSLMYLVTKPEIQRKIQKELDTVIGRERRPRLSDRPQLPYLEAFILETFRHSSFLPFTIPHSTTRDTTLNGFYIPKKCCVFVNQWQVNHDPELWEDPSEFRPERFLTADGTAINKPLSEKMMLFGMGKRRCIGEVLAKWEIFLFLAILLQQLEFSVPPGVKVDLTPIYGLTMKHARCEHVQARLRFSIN

cyp1a2 [8] = biological target: T5, cyp1a2 (Rattus norvegicus, UniProt P04799); assay: Inhibition of phenacetin metabolism by avitinib in rat liver microsomes
T5 sequence (P04799 1-513): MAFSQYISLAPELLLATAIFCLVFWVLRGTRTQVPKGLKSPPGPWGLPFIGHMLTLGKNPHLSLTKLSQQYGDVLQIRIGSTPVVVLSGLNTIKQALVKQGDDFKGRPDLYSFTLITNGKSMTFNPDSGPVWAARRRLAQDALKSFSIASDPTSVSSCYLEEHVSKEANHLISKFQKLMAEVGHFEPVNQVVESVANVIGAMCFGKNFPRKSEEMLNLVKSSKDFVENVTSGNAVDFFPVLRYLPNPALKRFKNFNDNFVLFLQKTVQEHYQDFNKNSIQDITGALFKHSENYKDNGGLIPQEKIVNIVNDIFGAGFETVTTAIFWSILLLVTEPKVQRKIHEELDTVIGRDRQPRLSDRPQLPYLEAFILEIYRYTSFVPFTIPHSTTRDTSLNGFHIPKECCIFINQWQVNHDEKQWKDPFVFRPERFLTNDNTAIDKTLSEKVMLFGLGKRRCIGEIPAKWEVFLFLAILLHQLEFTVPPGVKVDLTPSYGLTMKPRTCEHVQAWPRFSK

CYP2C9 [9] = biological target: T6, CYP2C9 (Homo sapiens, UniProt P11712); assay: biochemical
T6 sequence (P11712 whole entry): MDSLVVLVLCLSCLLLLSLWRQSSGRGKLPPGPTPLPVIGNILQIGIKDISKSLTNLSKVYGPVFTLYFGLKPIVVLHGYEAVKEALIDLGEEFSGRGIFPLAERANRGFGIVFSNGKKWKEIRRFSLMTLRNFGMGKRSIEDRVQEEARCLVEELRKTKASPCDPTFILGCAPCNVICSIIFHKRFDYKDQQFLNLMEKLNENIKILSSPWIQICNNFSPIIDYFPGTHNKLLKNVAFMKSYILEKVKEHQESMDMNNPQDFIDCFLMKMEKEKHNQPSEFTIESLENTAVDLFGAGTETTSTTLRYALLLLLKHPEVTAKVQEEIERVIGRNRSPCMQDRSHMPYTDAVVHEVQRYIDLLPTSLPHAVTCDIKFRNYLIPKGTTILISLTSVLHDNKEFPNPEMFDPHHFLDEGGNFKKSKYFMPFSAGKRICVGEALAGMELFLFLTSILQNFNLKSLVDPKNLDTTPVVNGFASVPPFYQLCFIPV

cyp2c11 = biological target: T7, cyp2c11 (Rattus norvegicus, UniProt P08683); assay: Inhibition of tolbutamide metabolism by avitinib in rat liver microsomes
T7 sequence (P08683 1-500): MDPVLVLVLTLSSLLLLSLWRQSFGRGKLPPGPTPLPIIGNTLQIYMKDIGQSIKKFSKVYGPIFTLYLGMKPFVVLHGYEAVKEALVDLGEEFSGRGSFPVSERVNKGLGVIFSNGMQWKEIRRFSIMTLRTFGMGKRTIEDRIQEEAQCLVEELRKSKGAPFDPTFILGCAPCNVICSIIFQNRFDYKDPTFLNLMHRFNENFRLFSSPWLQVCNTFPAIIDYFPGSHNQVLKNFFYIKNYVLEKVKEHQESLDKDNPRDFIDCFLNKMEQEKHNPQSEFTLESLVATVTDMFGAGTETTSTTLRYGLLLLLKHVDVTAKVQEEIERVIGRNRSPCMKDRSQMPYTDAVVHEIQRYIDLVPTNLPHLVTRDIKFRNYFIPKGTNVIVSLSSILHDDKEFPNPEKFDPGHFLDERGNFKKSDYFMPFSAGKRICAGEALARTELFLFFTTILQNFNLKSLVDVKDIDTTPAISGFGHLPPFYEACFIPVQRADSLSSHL

CYP2D6 [10] = biological target: T2, CYP2D6; assay: biochemical
CYP2E1 [11] = biological target: T8, CYP2E1 (Homo sapiens, UniProt P05181); assay: biochemical
T8 sequence (P05181 whole entry): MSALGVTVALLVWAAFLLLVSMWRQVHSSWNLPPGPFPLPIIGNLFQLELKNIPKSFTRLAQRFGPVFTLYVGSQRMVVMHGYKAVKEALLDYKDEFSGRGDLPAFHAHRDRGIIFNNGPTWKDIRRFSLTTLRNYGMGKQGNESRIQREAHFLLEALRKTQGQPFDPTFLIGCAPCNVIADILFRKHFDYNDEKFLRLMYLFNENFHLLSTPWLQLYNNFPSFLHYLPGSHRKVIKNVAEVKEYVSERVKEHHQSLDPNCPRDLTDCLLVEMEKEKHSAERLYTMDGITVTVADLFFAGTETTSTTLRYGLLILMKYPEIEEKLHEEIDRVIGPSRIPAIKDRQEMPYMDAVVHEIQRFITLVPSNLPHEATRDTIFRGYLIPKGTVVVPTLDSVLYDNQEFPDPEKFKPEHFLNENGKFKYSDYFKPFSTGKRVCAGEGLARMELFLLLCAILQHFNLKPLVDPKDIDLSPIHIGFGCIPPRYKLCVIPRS

CYP1A2 [12] = biological target: T4, CYP1A2; assay: biochemical
cyp3as [13] = assay: Inhibition of midazolam metabolism by avitinib in rat liver microsomes
CYP2C9 [14] = biological target: T6, CYP2C9; conditions: HLMs
CYP2E1 [15] = biological target: T8, CYP2E1; conditions: HLMs
cyp2d1 = biological target: T9, cyp2d1 (Rattus norvegicus, UniProt P10633); assay: Inhibition of dextromethorphan metabolism by avitinib in rat liver microsomes
T9 sequence (P10633 1-504): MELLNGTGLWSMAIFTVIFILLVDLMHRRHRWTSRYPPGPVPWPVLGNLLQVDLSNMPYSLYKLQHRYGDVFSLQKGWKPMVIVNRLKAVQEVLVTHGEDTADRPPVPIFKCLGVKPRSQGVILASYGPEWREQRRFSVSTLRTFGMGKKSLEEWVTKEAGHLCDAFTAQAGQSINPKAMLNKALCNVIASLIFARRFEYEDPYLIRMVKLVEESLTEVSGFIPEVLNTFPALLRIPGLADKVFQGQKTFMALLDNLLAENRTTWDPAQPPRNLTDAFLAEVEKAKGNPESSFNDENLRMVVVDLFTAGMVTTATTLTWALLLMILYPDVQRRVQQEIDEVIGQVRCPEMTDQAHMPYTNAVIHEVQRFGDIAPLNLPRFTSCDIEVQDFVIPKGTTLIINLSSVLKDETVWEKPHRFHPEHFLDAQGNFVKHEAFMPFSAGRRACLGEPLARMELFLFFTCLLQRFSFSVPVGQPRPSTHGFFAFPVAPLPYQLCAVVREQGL

[16] = multiple-doses 30 mg/kg avitinib (7 days)
[17] = avitinib 30 mg/kg multiple-doses or single-dose vs control

## CC(NC(C)(C)C)C(=O)c1cccc(Cl)c1 (stereo not drawn) [Bupropion]
[1]; [16]
  reduction of CLz/F compared with control group: 57.54%
  reduction of Vz/F compared with control group: 62.74%
[1]; single-dose 30 mg/kg avitinib
  reduction of CLz/F compared with control group: 53.96%
  reduction of Vz/F compared with control group: 64.59%

## COc1ccc2c(c1)[C@]13CCCC[C@@H]1[C@H](C2)N(C)CC3 [Dextromethorphan]
[1]; [17]
  change in Tmax values after avitinib (in words): No significant changes
[1]; [16]
  reduction of CLz/F compared with control group: 82.22%
  reduction of Vz/F compared with control group: 73.53%
[1]; single-dose 30 mg/kg avitinib
  reduction of CLz/F compared with control group: 67.78%
  reduction of Vz/F compared with control group: 69.7%

## Cc1ncc2n1-c1ccc(Cl)cc1C(c1ccccc1F)=NC2 [Midazolam]
[1]; [17]
  difference in Cmax after avitinib (in words): No significant difference

## CCOc1ccc(NC(C)=O)cc1 [Phenacetin]
[1]; [17]
  change in t1/2 values after avitinib (in words): no significant change
[1]; [16]
  reduction of CLz/F compared with control group: 63.17%
  reduction of Vz/F compared with control group: 63.09%
[1]; single-dose 30 mg/kg avitinib
  reduction of CLz/F compared with control group: 39.52%

## CCCCNC(=O)NS(=O)(=O)c1ccc(C)cc1 [Tolbutamide]
[1]; [17]
  difference in Cmax after avitinib (in words): No significant difference

## C=CC(=O)Nc1cccc(Oc2nc(Nc3ccc(N4CCN(C)CC4)c(F)c3)nc3[nH]ccc23)c1 [avitinib, Avitinib]
CYP2B6 [2]
  IC50: 22.6 µM
CYP2D6 [3]
  inhibitory effect on CYP2D6 (grade in words): weak
CYP3As [4]; HLMs
  inhibitory effect on CYP3As (grade in words): weak
CYP3As [4]; human, human liver microsomes, probe midazolam (5 μM)
  IC50 at 30 min: 59.6 µM
cyp2b1
  IC50: 6.39 µM
cyp2b1; RLMs
  inhibitory effect on cyp2b1 (grade in words): moderate
CYP2B6 [5]
  inhibitory effect on CYP2B6 (grade in words): weak
cyp2e1 [6]
  IC50: 23.2 µM
cyp2e1 [6]; RLMs
  inhibitory effect on cyp2e1 (grade in words): weak
CYP1A2 [7]
  inhibitory effect on CYP1A2 (grade in words): weak
cyp1a2 [8]
  IC50: 15.8 µM
cyp1a2 [8]; RLMs
  inhibitory effect on cyp1a2 (grade in words): weak
CYP2C9 [9]
  IC50: 6.91 µM
cyp2c11
  IC50: 42.2 µM
cyp2c11; RLMs
  inhibitory effect on cyp2c11 (grade in words): weak
CYP2D6 [10]
  IC50: 56.6 µM
CYP2E1 [11]
  IC50: 57.1 µM
CYP1A2 [12]
  IC50: 48.4 µM
cyp3as [13]; RLMs
  inhibitory effect on cyp3as (grade in words): weak
cyp3as [13]; male, Sprague-Dawley, rat, rat liver microsomes, probe midazolam (5 μM)
  IC50 at 30 min: 27.6 µM
CYP2C9 [14]
  inhibitory effect on CYP2C9 (grade in words): moderate
CYP2E1 [15]
  inhibitory effect on CYP2E1 (grade in words): weak
cyp2d1
  IC50: 44.4 µM
cyp2d1; RLMs
  inhibitory effect on cyp2d1 (grade in words): weak
